Consider 5 compounds from BindingDB's records for patent US10696638 (INDUSTRIAL TECHNOLOGY RESEARCH INSTITUTE, 2020).

In the experiment the target is Rho-associated protein kinase 2 (Homo sapiens, UniProt O75116). Put plainly: ELISA Assay. On the procedure: ROCK Substrate Coated Plate (Part No 241601): One strip well 96-well plate pre-coated with recombinant MYPT1.Buffer: 25 mM Tris, pH 7.5, 10 mM MgCl2, 5 mM Glycerol-2-Phosphate, 0.1 mM Na3VO4; 1% DMSO; 2.5 mM DTT; (Enzyme: ROCK active-II) (Cell Biolabs, Catalog #STA-406, Part No. 241505) 0.1 ng/μl.ATP Solution (Part No. 241604): 100 mM ATP. Final concentration of ATP in reaction mixture: 250 μM.Anti-phospho-MYPT1 (Thr696) (Part No. 241603).Secondary Antibody, HRP Conjugate (Part No. 231003).Biotinylated substrate, diluted to 0.25 μM with buffer described above (without ATP).Steps:1. Purified kinase or cell lysate sample can be used directly in the kinase assay or further diluted with 1× Kinase Buffer. Each sample should be assayed in duplicate.2. Add 90 μL of the diluted active ROCK-II positive control or unknown ROCK samples to the wells of the substrate plate.3. Initiate the kinase reaction by adding 10 μL of the 10× Kinase Reaction Buffer containing DTT and ATP. Mix well.4. Cover with a plate cover and incubate the wells at 30° C. for 30-60 minutes with gentle agitation.5. Stop kinase reaction by flicking out the content or by adding 50 μL of 0.5M EDTA, pH 8.0, to each well.6. Remove the plate cover and empty wells. Wash microwell strips 3 times with 250 μL 1× Wash Buffer per well with thorough aspiration between each wash. After the last wash, empty wells and tap microwell strips on absorbent pad or paper towel to remove excess 1× Wash Buffer.7. Add 100 μL of the diluted anti-phospho-MYPT1 (Thr696) antibody to each well.8. Cover with the plate cover and incubate at room temperature for 1 hour on an orbital shaker.9. Remove the plate cover and empty wells. Wash the strip wells 3 times according to step 6 above.10. Add 100 μL of the diluted HRP-conjugated secondary antibody to each well.11. Cover with the plate cover and incubate at room temperature for 1 hour on an orbital shaker.12. Remove the plate cover and empty wells. Wash microwell strips 3 times according to step 6 above. Proceed immediately to the next step.13. Warm Substrate Solution to room temperature. Add 100 μL of Substrate Solution to each well, including the blank wells. Incubate at room temperature for 5-20 minutes on an orbital shaker.14. Stop the enzyme reaction by adding 100 μL of Stop Solution into each well, including the blank wells. Results should be read immediately (color will fade over time).15. Read absorbance of each microwell on a spectrophotometer using 450 nm as the primary wave length.
Chain of Rho-associated protein kinase 2 (O75116 whole entry): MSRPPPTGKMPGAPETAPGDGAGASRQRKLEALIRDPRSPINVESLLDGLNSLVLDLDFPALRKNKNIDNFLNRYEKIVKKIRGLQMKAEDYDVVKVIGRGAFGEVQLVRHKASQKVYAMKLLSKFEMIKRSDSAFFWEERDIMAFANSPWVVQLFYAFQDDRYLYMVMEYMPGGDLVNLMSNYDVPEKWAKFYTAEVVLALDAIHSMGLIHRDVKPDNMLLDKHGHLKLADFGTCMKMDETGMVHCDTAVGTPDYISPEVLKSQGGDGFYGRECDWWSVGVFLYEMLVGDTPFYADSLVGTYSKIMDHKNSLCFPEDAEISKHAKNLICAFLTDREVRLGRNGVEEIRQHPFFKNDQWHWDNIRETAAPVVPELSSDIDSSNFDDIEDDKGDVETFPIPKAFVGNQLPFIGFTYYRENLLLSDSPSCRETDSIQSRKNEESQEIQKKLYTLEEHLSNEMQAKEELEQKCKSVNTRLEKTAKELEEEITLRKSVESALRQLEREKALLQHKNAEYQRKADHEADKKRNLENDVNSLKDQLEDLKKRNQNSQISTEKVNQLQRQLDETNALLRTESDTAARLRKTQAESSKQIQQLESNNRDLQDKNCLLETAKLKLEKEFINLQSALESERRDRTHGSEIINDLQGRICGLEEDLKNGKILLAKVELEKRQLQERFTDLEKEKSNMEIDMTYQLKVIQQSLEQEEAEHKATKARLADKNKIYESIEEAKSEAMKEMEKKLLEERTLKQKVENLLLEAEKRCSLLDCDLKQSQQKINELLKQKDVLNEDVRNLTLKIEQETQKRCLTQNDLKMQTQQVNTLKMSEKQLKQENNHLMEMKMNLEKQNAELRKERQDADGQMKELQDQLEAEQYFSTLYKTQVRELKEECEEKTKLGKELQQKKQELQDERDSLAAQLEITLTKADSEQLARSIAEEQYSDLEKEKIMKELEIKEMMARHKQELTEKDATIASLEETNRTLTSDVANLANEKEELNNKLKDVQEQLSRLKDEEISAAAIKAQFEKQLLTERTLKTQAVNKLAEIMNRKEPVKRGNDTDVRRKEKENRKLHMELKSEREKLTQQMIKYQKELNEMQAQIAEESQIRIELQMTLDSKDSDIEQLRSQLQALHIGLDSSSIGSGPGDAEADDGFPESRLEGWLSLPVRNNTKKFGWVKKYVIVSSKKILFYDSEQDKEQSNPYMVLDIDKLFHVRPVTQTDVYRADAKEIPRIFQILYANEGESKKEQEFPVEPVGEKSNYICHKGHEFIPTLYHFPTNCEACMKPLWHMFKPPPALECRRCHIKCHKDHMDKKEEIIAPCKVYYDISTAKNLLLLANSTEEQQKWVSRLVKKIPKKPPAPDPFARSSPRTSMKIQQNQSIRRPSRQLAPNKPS
A general note: In an ELISA, binding on a coated surface is turned into a signal by an enzyme label.
The IC50 is the concentration that gives 50% inhibition. Consider `O=C(Nc1cccc2cnccc12)N(Cc1ccc(Cl)cc1)C1CCNCC1` [US10696638, formula (I) 9], for which the IC50 is more than 1 µM. Consider `CN(C)CCN(Cc1ccc(F)cc1)C(=O)Nc1cccc2cnccc12` [US10696638, formula (I) 5], for which the IC50 is more than 1 µM. To `O=C(Nc1ccc2cnccc2c1)N[C@@H](CO)c1ccccc1` [US10696638, Table 1.6] belongs more than 1 µM; to `CN(C)CCN(Cc1ccc(F)cc1)C(=O)Nc1ccc2cnccc2c1` [US10696638, Table 1.2], more than 1 µM. Take `O=C(Nc1cccc2cnccc12)N[C@@H](CO)c1ccccc1` [US10696638, formula (I) 4]: the IC50 is more than 1 µM.
